The source of these data is PubChem BioAssay (NCI).

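96-well plates; 48 h exposure; 5 concentrations. Endpoints by linear interpolation between flanking doses. Not reached: highest tested concentration assigned. GI50: concentration for 50% inhibition of growth. At the TGI there is no net growth.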

Common to all, as to test: inhibition of tumour cell growth, NCI panel, 48 h
The subject of experiment [1] is HOP-92 NSCLC.
The subject of experiment [2] is UACC-257 melanoma.
Experiment [3] deals with RXF 393 renal.
In experiment [4] the test system is SK-MEL-5 melanoma.
The subject of experiment [5] is HCT-15 colon.
For experiment [6], the system named is NCI-H460 lung.
For experiment [7], the system named is M14 melanoma.
The test system of experiment [8] is LOX IMVI melanoma.

For the molecule `CN(CCc1ccccn1)/[N+]([O-])=N/O` (tested in a mixture with another compound), the TGI in experiment [1], in experiment [2], in experiment [3], in experiment [4], in experiment [5] and in experiment [6] was above 100 µM each time. This molecule also gave a TGI in experiment [7] above 100 µM.
With `CCN(CC)CCNc1ccc(N=Nc2cnc3ccccc3c2)c2ccccc12`, the GI50 in experiment [2] was 1960 nM; in experiment [3] it was 1.88 µM; in experiment [8], 1430 nM; in experiment [4], 1.67 µM; in experiment [5], 1470 nM; in experiment [6] it was 1720 nM. The GI50 in experiment [7] is 1.79 µM. In addition, the TGI was 3.49 µM in experiment [2]; 4.05 µM in experiment [3]; 2.77 µM in experiment [8]; 3.03 µM in experiment [4]; 2.93 µM in experiment [5]; 3.18 µM in experiment [6]. This molecule returned a TGI in experiment [7] of 3.29 µM.
For the molecule `C=C1CCCC2OC(OC)CCC12` (stereo not drawn), the TGI in experiment [1], in experiment [2], in experiment [3], in experiment [4], in experiment [5] and in experiment [6] was above 100 µM each time. In experiment [7], this molecule displayed a TGI above 100 µM.
Take `CCCCCCCCC1C(C)c2c([nH]c3ccccc23)C2C(=O)N(c3ccccc3)C(=O)C21` (stereo not drawn): the TGI in experiment [3] was 6.84 µM; in experiment [4], 31.7 µM; in experiment [5], 25.6 µM; in experiment [6], 12.9 µM; in experiment [7], 28 µM.
In the case of `CSC(=NC(=O)c1ccccc1)SCCSC(=NC(=O)c1ccccc1)SC`, the TGI is 83.4 µM in experiment [1]; above 100 µM in experiment [2]; above 100 µM in experiment [3]; above 100 µM in experiment [8]; above 100 µM in experiment [4]; above 100 µM in experiment [5]. For the same molecule, the TGI in experiment [6] and in experiment [7] was above 100 µM in each case.
On to `CC1(C)C=C(N2CCN(C3=CC(C)(C)NC(C)(C)C3)CC2)CC(C)(C)N1`, for which the TGI in experiment [1], in experiment [2], in experiment [8], in experiment [4], in experiment [5] and in experiment [6] was above 100 µM each time. The same molecule displayed a TGI in experiment [7] above 100 µM.
For `CC(/C=C1\CCC(CN(C)C)C1=O)c1cccc(Br)c1` (stereo not drawn), the TGI in experiment [1] was 33.5 µM; in experiment [2] it was 31.6 µM; in experiment [3], 26.5 µM; in experiment [4] it was 18.8 µM; in experiment [5], 34 µM; in experiment [6] it was above 70.2 µM. This molecule registered a TGI in experiment [7] of 29.2 µM.
On to `O=C1C(c2ccccc2)=[N+]([O-])c2cc([N+](=O)[O-])ccc21`, for which the TGI in experiment [1] is 64.5 µM; in experiment [2], 40.5 µM; in experiment [3], 34.9 µM; in experiment [8], 28.6 µM; in experiment [4], 39.2 µM; in experiment [5], 56.5 µM. The TGI in experiment [6] came out at 56.8 µM.
Turning to `Cc1ccc(-c2nc3ccccc3c(=O)n2NC2OC(CO)C(O)C(O)C2O)cc1` (stereo not drawn), the TGI in experiment [1], in experiment [2], in experiment [4], in experiment [5], in experiment [6] and in experiment [7] was above 100 µM each time.
On to `CC(=O)OC(C)(C)C[N+](=O)[O-]`, for which the TGI in experiment [1], in experiment [2], in experiment [3], in experiment [8], in experiment [5] and in experiment [6] was above 100 µM throughout. For the same molecule, in experiment [7], the TGI is above 100 µM.
On to `COC(=O)/C(=N\Nc1nc(=S)[nH]n1N)C(C#N)c1ccc(Cl)cc1` (stereo not drawn), for which the TGI in experiment [1], in experiment [2], in experiment [3], in experiment [8], in experiment [5] and in experiment [6] was above 100 µM each time. The molecule further had a TGI in experiment [7] above 100 µM.
For `CC[C@@]1(O)C(=O)OCc2c1cc1n(c2=O)Cc2cc3cccc(N)c3nc2-1`, the GI50 is above 100 µM in experiment [1]; above 100000 nM in experiment [2]; 7.1 µM in experiment [3]; 4190 nM in experiment [8]; 8.75 µM in experiment [4]; 1380 nM in experiment [6]. Besides, in experiment [7], the GI50 was 9.27 µM. The TGI in experiment [1] was above 100 µM; in experiment [2] it was above 100 µM; in experiment [3] it was 94.7 µM; in experiment [8], 37.2 µM; in experiment [4], above 100 µM; in experiment [6], 11.2 µM. In experiment [7], this molecule showed a TGI above 100 µM.
Turning to `C=C(C)C1CC=C(C)C(O)([C@@]2(O)C[C@H](C(=C)C)CC=C2C)C1` (stereo partly drawn), the TGI in experiment [1] amounted to 40.6 µM; in experiment [2], 42.8 µM; in experiment [3], 29.1 µM; in experiment [8], 26.9 µM; in experiment [4], 28.3 µM; in experiment [6], 34.6 µM. Also, the TGI in experiment [7] is 39.9 µM.
